In EP0553673A1 (priority 1992, dated 1993):

Tested on: Krebszellen der Zellinie BIR-M1Rk
Type: cell-based, Marshall-Ratten

With COC(CCOCc1ccccc1)(CCOP(N)(=O)N(CCCl)CCCl)OC (racemic) [Beispiel 6] the “um den Faktor verringerte Überlebensrate der Krebszellen” value (pH 6) was 10 000 and the Toxizität (pH 7) was “nur eine geringe Toxizität”.
